Molecular target: T1, surface-expressed CD73 on human PBMCs (Homo sapiens, UniProt P21589)
T1 construct: 72400 (T cells); host or cells: human PBMCs / human T cells
T1 sequence (P21589 27-549): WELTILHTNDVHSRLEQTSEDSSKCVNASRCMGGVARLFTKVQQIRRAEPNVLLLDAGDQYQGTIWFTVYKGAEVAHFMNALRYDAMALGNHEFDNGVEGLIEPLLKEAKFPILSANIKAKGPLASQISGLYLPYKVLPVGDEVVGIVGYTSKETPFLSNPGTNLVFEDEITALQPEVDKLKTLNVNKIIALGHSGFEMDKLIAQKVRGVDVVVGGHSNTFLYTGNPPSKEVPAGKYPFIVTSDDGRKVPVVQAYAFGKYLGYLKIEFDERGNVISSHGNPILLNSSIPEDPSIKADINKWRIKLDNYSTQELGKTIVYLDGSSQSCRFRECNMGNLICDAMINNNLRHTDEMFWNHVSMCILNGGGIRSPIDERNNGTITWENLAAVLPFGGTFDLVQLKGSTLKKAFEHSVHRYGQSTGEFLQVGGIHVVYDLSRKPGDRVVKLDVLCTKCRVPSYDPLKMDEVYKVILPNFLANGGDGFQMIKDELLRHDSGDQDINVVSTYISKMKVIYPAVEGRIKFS
Assay: Human immune cell-based CD73 enzyme inhibition assay (PBMCs)
Conditions: AMP 300 μM, 2.5-3 h
Procedure: The human immune cell-based CD73 enzyme inhibition assay was performed essentially as described above For the cell-free assay, with the following modifications. Human PBMCs (cat. no. HUMAN-PBMC-U-211140) or T cells (cat. no. 72400, Stem Cell Tech) were seeded at 8×10^3 cells/well into 96-well tissue culture-treated plates. […] Percent CD73 inhibition versus concentration were plotted using GraphPad Prism Version 8 and IC50's calculated using nonlinear regression analysis ([inhibitor]vs normalized response).

COC[C@](CO)(OC[C@H]1O[C@@H](n2ncc3c(NC4CCCC4)nc(Cl)nc32)[C@H](O)[C@@H]1O)P(=O)(O)O [OP5244]
IC50: 0.02 nM

Source: patent publication US20260000781A1, “FC CONJUGATES INCLUDING AN INHIBITOR OF CD73 AND USES THEREOF” (Cidara Therapeutics, Inc., priority 2022, published 2026)
